Experimental data published in US7326727B2, “Furanthiazole derivatives as heparanase inhibitors” (Oxford Glycosciences (UK) Ltd., priority 2002, dated 2008).
pIC50: −log10 of the molar value.

Columns and labels:
human heparanase = molecular target: T1, human heparanase (Homo sapiens, UniProt Q9Y251); experiment: Heparanase assay (bFGF binding to heparan sulphate, 96-well plate); type: biochemical; details: 2 h at 37° C., pH 5.5, read-out: Inhibition of Heparanase (IC50)
T1 sequence (Q9Y251 158-543 limits assumed): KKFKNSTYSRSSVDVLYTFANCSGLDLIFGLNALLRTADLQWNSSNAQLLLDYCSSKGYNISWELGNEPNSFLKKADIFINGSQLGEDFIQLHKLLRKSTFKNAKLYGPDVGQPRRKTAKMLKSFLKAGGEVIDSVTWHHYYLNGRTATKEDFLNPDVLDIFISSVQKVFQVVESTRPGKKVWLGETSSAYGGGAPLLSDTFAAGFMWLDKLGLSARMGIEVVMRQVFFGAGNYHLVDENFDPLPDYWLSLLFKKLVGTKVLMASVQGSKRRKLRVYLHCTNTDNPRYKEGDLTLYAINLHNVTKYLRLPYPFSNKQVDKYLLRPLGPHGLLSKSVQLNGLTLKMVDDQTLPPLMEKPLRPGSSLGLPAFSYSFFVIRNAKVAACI
T1 sequence (Q9Y251 36-109 limits assumed): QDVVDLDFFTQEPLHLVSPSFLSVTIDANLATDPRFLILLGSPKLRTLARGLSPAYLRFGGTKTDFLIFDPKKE
Experimental: Heparanase assay: The assay is based upon the use of the specific binding of basic fibroblast growth factor (bFGF) to heparan sulphate. Heparan sulphate can be detected via binding of bFGF using a horse radish peroxidase-conjugated bFGF antibody.
Nunc Maxisorp 96-well plates are coated for 16 h at RT with 100 μl/well 0.04 mg/ml heparan sulphate in PBS. The wells are then aspirated and blocked for 1 h with 200 μl/well 1% BSA-PBS. Following five washes with 0.01% BSA, 0.05% Tween20 PBS (wash buffer), 100 μl of recombinant human basic FGF (90 ng/ml in 0.1% BSA/PBS) is added per well and the plate is incubated at room temperature for 1 h.
After a further five washes with the wash buffer, 10 μl of test compound (in 10% DMSO) and 90 μl of human heparanase in 100 mM Sodium acetate, 5 mM CaCl2, pH 5.5 are added to each well and the plate incubated for 2 h at 37° C. The wells are washed again with wash buffer and 100 μl of bFGF antibody-horse radish peroxidase conjugate added. The plate is incubated at room temperature for 1 h and washed again five times with wash buffer. 100 μl of TMB peroxidase substrate is added and the colour allowed to develop for 10 min. The reaction is stopped with 50 μl 1M H2SO4 and the colour read at 450 nm on a plate reader.

human endothelial cells = experiment: Angiogenesis assay (AngioKit, tubule formation by PECAM-1 staining); type: cell-based; details: Endothelial cell, 264 h, AngioKit co-culture, tubule formation on day 11, PECAM-1 staining relative to untreated control
Text: Angiogenesis Assay: A commercial angiogenesis assay for analysing the angiogenic or anti-angiogenic properties of test compounds (AngioKit catalogue no. ZHA-1000, TCS CellWorks Ltd, Buckingham, U.K) was used. In this assay, human endothelial cells were co-cultured with other human cells in a specifically designed medium. The endothelial cells initially form small islands within the culture matrix. They subsequently proliferate and then enter a migratory phase during which they move through the matrix to form threadlike tubule structures. These gradually join up (by 12-14 days) to form networks of […] tubules which closely resemble a capillary bed structure. These tubules stain positive for von Willebrand's Factor, Platelet Endothelial Cell Adhesion Molecule-1 (PECAM-1 or CD31) and Intercellular Adhesion Molecule-2 (ICAM-2).
The assay is supplied as growing cultures at the earliest stage of tubule formation in a 24 well plate format. It is designed so that test compounds and conditioned media can be added to the cultures within individual wells. The resulting effect on tubule formation can then be monitored. Positive and negative test agents are provided in the kit, e.g. Vascular Endothelial Growth Factor (VEGF) and sumarin. All reagents were included as part of the kit and the assay was performed according to the protocol supplied by TCS CellWorks Ltd. Briefly, on day 1, fresh growth medium, medium plus control agent or medium plus test compound was added to the cells and the cultures were incubated at 37° C., 5% CO2. […] The specified medium was changed at days 4, 7 and 9 and the cells were monitored for growth. On day 11, the cells were washed with Dulbecco's Phosphate-Buffered Saline (PBS) and fixed using 70% ethanol (−20° C.) for 30 min at room temperature. After fixing, the cells were washed and treated with blocking buffer, 1% BSA in PBS. The cells were stained for PECAM-1 on the same day, following standard immunohistochemistry procedures well known to those skilled in the art, using mouse anti-human CD31 as the primary antibody and a goat anti-mouse IgG alkaline […] conjugate. Tubule formation was quantitatively assessed by measuring PECAM-1 positive staining using the image analysis program “Matrox inspector” to evaluate the percentage tubule staining relative to an untreated control.

Row | Compound | pIC50 (human heparanase) | pIC50 (human endothelial cells)
1 | 2-[4-[5-[2-Chloro-4-[3-(3,5-bistrifluoromethyl)phenylacryloylamino]phenyl]furan-2-yl]-1,3-thiazol-2-yl]acetic acid [Example 7] | 6.40 | –
2 | O=C(O)Cc1nc(-c2ccc(-c3ccc(NC(=O)c4ccc(OC(F)(F)F)cc4)cc3)o2)cs1 [Example 4] | – | 6.70
3 | O=C(O)Cc1nc(-c2ccc(-c3ccc(NC(=O)/C=C/c4ccc(Br)cc4)cc3Cl)o2)cs1 [Example 5, 2-[4-[5-[2-Chloro-4-[3-(4-bromo)phenylacryloylamino]phenyl]furan-2-yl]-1,3-thiazol-2-yl]acetic acid] | – | 6.00
4 | O=C(O)Cc1nc(-c2ccc(-c3ccc(NC(=O)/C=C/c4ccc(Cl)cc4Cl)cc3Cl)o2)cs1 [Example 6, 2-[4-[5-[2-Chloro-4-[3-(2,4-dichloro)phenylacryloylamino]phenyl]furan-2-yl]1,3-thiazol-2-yl]acetic acid] | – | 6.30
5 | O=C(O)Cc1nc(-c2ccc(-c3ccc(NC(=O)C=Cc4ccccc4)cc3Cl)o2)cs1 [Example 8, 2-[4-[5-[2-Chloro-4-(3-phenylacryloylamino)phenyl]furan-2-yl]-1,3-thiazol-2-yl]acetic acid] | – | 4.82
6 | O=C(O)Cc1nc(-c2ccc(-c3ccc(NC(=O)c4cc5ccccc5s4)cc3Cl)o2)cs1 [Example 11, 2-[4-[5-[2-Chloro-4-[(benzothiophene-2-carbonyl)amino]phenyl]furan-2-yl]-1,3-thiazol-2-yl]acetic acid] | 6.40 | 4.70
7 | O=C(O)Cc1nc(-c2ccc(-c3ccc(NC(=O)c4ccc(Cl)c(Cl)c4)cc3Cl)o2)cs1 [Example 18, 2-[4-[5-[2-Chloro-4-[(3,4-dichlorophenylcarbonyl)amino]phenyl]furan-2-yl]-1,3-thiazol-2-yl]acetic acid] | – | 5.00
8 | COc1cccc(C(=O)Nc2ccc(-c3ccc(-c4csc(CC(=O)O)n4)o3)c(Cl)c2)c1 [Example 21, 2-[4-[5-[2-Chloro-4-[(3-methoxyphenylcarbonyl)amino]phenyl]furan-2-yl]-1,3-thiazol-2-yl]acetic acid] | 5.15 | –
9 | O=C(O)Cc1nc(-c2ccc(-c3ccc(NC(=O)c4ccc(OC(F)(F)F)cc4)cc3Cl)o2)cs1 [Example 22, 2-[4-[5-[2-Chloro-4-[(4-trifluoromethoxyphenylcarbonyl)amino]phenyl]furan-2-yl]-1,3-thiazol-2-yl]acetic acid] | – | 6.30
